From ChEMBL document CHEMBL4033756, “Identification of Better Pharmacokinetic Benzothiazinone Derivatives as New Antitubercular Agents” (ACS Med Chem Lett, 2017)
Converted amounts (≈) assume the structure as drawn.

Assays:
[1] = tested on: Mycobacterium tuberculosis; assay: Antitubercular activity against multidrug-resistant Mycobacterium tuberculosis 14231 after 7 days by microplate alamar blue assay; type: functional; conditions: Mycobacterium tuberculosis, 14231, 168 h
[2] = tested on: Mycobacterium tuberculosis; assay: Antitubercular activity against multidrug-resistant Mycobacterium tuberculosis 12525 after 7 days by microplate alamar blue assay; type: functional; conditions: Mycobacterium tuberculosis, 12525, 168 h

## CO[C@H]1/C=C/O[C@@]2(C)Oc3c(C)c(O)c4c(O)c(c(/C=N/N5CCN(C)CC5)c(O)c4c3C2=O)NC(=O)/C(C)=C\C=C\[C@H](C)[C@H](O)[C@@H](C)[C@@H](O)[C@@H](C)[C@H](OC(C)=O)[C@@H]1C [RIFAMPIN]
[1]
  MIC90: > 48.6 µM
[2]
  MIC90: 27.2 µM (≈ 22.4 µg/mL)

## O=c1nc(N2CCC3(CCN(Cc4ccccc4)C3)CC2)sc2c([N+](=O)[O-])cc(C(F)(F)F)cc12
[1]
  MIC90: < 0.035 µM
[2]
  MIC90: < 0.035 µM

## O=c1nc(N2CCC3(CCN(Cc4ccc(C(F)(F)F)cc4)CC3)CC2)sc2c([N+](=O)[O-])cc(C(F)(F)F)cc12
[1]
  MIC90: < 0.035 µM
[2]
  MIC90: < 0.035 µM

## NNC(=O)c1ccncc1 [ISONIAZID]
[1]
  MIC90: 34.5 µM (≈ 4.73 µg/mL)
[2]
  MIC90: > 292 µM

## CCOC(=O)CN1CCC2(CCN(c3nc(=O)c4cc(C(F)(F)F)cc([N+](=O)[O-])c4s3)CC2)C1
[1]
  MIC90: 0.06 µM (≈ 0.03 µg/mL)
[2]
  MIC90: 0.08 µM (≈ 0.04 µg/mL)

## COc1ccc(CN2CCC3(CCN(c4nc(=O)c5cc(C(F)(F)F)cc([N+](=O)[O-])c5s4)CC3)C2)cc1
[1]
  MIC90: 0.095 µM (≈ 0.0508 µg/mL)
[2]
  MIC90: 0.056 µM (≈ 0.0299 µg/mL)

## O=c1nc(N2CCC3(CCN(Cc4ccc(F)cc4)C3)CC2)sc2c([N+](=O)[O-])cc(C(F)(F)F)cc12
[1]
  MIC90: 0.034 µM (≈ 0.0178 µg/mL)
[2]
  MIC90: < 0.035 µM

## O=c1nc(N2CCC3(CCN(Cc4ccc(Br)cc4)CC3)CC2)sc2c([N+](=O)[O-])cc(C(F)(F)F)cc12
[1]
  MIC90: 0.086 µM (≈ 0.0514 µg/mL)
[2]
  MIC90: 0.092 µM (≈ 0.055 µg/mL)

## O=c1nc(N2CCC3(CCN(Cc4cc(F)cc(F)c4)CC3)CC2)sc2c([N+](=O)[O-])cc(C(F)(F)F)cc12
[1]
  MIC90: < 0.035 µM
[2]
  MIC90: < 0.035 µM

## O=c1nc(N2CCN(CC3CCCCC3)CC2)sc2c([N+](=O)[O-])cc(C(F)(F)F)cc12 [MACOZINONE]
[1]
  MIC90: < 0.035 µM
[2]
  MIC90: < 0.035 µM

## COc1ccc(CN2CC3(CCN(c4nc(=O)c5cc(C(F)(F)F)cc([N+](=O)[O-])c5s4)CC3)C2)cc1
[1]
  MIC90: 0.123 µM (≈ 0.064 µg/mL)
[2]
  MIC90: 0.119 µM (≈ 0.0619 µg/mL)

## O=c1nc(N2CCC3(CCN(Cc4cccc(F)c4)CC3)CC2)sc2c([N+](=O)[O-])cc(C(F)(F)F)cc12
[1]
  MIC90: < 0.035 µM
[2]
  MIC90: < 0.035 µM
